Laboratory results from patent publication US11401262B2, “Dimeric contrast agents” (BRACCO IMAGING S.P.A., priority 2015, dated 2022).

Experiment: Relaxometric properties: longitudinal relaxivity r1p measurement
Format: physicochemical
Details: per mM Gd; for r1p at 0.47 T 37° C., human plasma / r1p at 0.47 T 37° C., saline: 0.47 T (20 MHz); for r1p at 0.47 T 37° C., saline / r1p at 1.41 T 37° C., saline: physiologic solution; for r1p at 1.41 T 37° C., human plasma / r1p at 1.41 T 37° C., saline: 1.41 T (60 MHz)
Experimental: The relaxometric properties of some representative complex compounds according to the invention have been determined at different magnetic field strengths, e.g. including 0.47 and 1.41 T, at 37° C. and in different media (physiologic solution and human plasma) and compared with relaxivity values measured, at the same conditions, for some Gd-Complex of the market having an analogous cyclic coordination cage.
The longitudinal water proton relaxation rate (R1=1/T1) was measured at 0.47 T with a Minispec MQ-20 spectrometer (Bruker Biospin, Germany) operating at a proton Larmor frequency of 20 MHz; MR experiments at 1.41 T were performed using a Minispec MQ-60 spectrometer (Bruker Biospin, Germany) operating at a proton Larmor frequency of 60 MHz.
All test articles were used as supplied and diluted in the selected medium (physiologic solution or human plasma) by weighting the required amount of paramagnetic chelated complex to get a 5 or 10 mM starting solution.
Five different concentration samples (0.1, 0.25, 0.5, 0.75 and 1 mM) for each medium have been prepared by further dilution of the starting 5 or 10 mM solution.
Relaxivity measurements were performed at 0.47 T and 1.41 T at a preset temperature sample of 37° C., kept constant by means of a thermostatic bath connected to the sample holder of the spectrometer. The five sample solutions have been preliminary pre-heated at 37° C. in an external thermostatic bath and then left 10 minutes inside the internal bath to assure the stabilization of the temperature. Longitudinal relaxation time T1 was measured by means of a standard inversion recovery sequence, where the inversion time (TI) was varied from 10 ms to at least 5 times T1 in 15 steps. Statistical analysis (mono-exponential fitting for T1 measurement, linear fitting for the evaluation of longitudinal relaxivity) was performed by Mathematica® (Wolfram, USA). Errors on the estimated parameters were evaluated by the fitting procedure.

Structure (SMILES) | r1p at 0.47 T 37° C., human plasma [mM⁻¹ s⁻¹] | r1p at 0.47 T 37° C., saline [mM⁻¹ s⁻¹] | r1p at 1.41 T 37° C., human plasma [mM⁻¹ s⁻¹] | r1p at 1.41 T 37° C., saline [mM⁻¹ s⁻¹]
O=C(O)CN1CCN(CC(=O)O)CCN(CC(O)CN(CC(O)CN2CCN(CC(=O)O)CCN(CC(=O)O)CCN(CC(=O)O)CC2)CC(O)C(O)C(O)C(O)CO)CCN(CC(=O)O)CC1 (stereo not shown) | 11.5 | 9.3 | 10.8 | 9.4
O=C(O)CN1CCN(CC(=O)O)CCN(CC(O)CN(CC(O)CN2CCN(CC(=O)O)CCN(CC(=O)O)CCN(CC(=O)O)CC2)CP(=O)(O)O)CCN(CC(=O)O)CC1 (stereo not shown) [Chelate Complex 2] | 12.0 | 9.0 | 11.3 | 9.3
O=C(O)CN1CCN(CC(=O)O)CCN(CC(O)CN(CCN(CC(=O)O)CC(O)CN2CCN(CC(=O)O)CCN(CC(=O)O)CCN(CC(=O)O)CC2)CC(=O)O)CCN(CC(=O)O)CC1 (stereo not shown) | 10.6 | 7.3 | 10.2 | 7.5
O=C(O)CN1CCN(CC(=O)O)CCN(CC(O)CN(CC(=O)O)CC(O)CN2CCN(CC(=O)O)CCN(CC(=O)O)CCN(CC(=O)O)CC2)CCN(CC(=O)O)CC1 (stereo not shown) | 9.7 | 8.3 | 9.2 | 8.5
